Experiment [1] relates to GnRH neurons. Put plainly: GnRH neuron firing, targeted extracellular recordings in brain slices. The experiment is classed as cell-based, mouse. The conditions noted are these: for response of GnRH neuron firing to 1 nM kisspeptin-10 after pretreatment with peptide: 1, 10, 100 nM peptide. How it is done: Firing of GnRH neurons were recorded in brain slices from transgenic female mice in which GFP is genetically targeted to GnRH neurons (42). Mice were housed on a 14 h light, 10 h dark cycle, with lights off at 1630 h, and were maintained on Harlan 2916 rodent chow (Harlan) and water ad libitum. All procedures were approved by the Animal Care and Use Committee of University of Virginia and were conducted within the guidelines of the National Research Council's Guide for the Care and Use of Laboratory Animals. Adult female GnRH-GFP mice were ovariectomized under isoflurane (Abbott Laboratories) anesthesia. Postoperative analgesia was provided by a long-acting local anesthetic (0.25% bupivicaine; 7.5 μl/site; Abbott Laboratories). At the time of surgery, mice received Silastic (Dow Corning) capsules containing 0.625 μg estradiol in sesame oil. […] No more than four cells from a single animal were recorded, all in different slices.
Brain slices were prepared using previously described method (44). Briefly, all solutions were bubbled with a 95% O2/5% CO2 mixture throughout the experiments and for at least 15 min before exposure to the tissue. The brain was rapidly removed and placed in ice-cold, high-sucrose saline solution containing 250 mM sucrose, 3.5 mM KCl, 26 mM NaHCO3, 10 mM glucose, 1.25 mM Na2HPO4, 1.2 mM MgSO4, and 2.5 mM MgCl2. Coronal 300-μm brain slices were cut with a Vibratome 3000 (Technical Products, International, Inc., St. Louis, Mo.). Slices were incubated for 30 min at 30-32 C in a solution of 50% high-sucrose saline and 50% normal saline (NS) containing 135 mM NaCl, 3.5 mM KCl, 10 mM glucose, 1.3 mM Na2HPO4, 1.2 mM MgSO4, and 2.5 mM CaCl2 and then were transferred to a solution of 100% NS at room temperature and kept at least 30 min and no more than 6 h before recording.
Targeted extracellular recordings (also known as loose-patch) were used to study effects of kisspeptin-10 and peptide 234 on GnRH neuron firing activity (45). […] Although these events are not action potentials per se, they accurately reflect changes in the action potential firing rate. For simplicity, we have used the phrases firing rate, firing pattern, and/or firing activity to refer to these events.
Individual brain slices were placed in a recording chamber continuously superfused with oxygenated NS solution and kept at 29-31 C. Cells were visualized with an Olympus BX50WI upright fluorescent microscope with infrared differential interference contrast (Opelco). GnRH neurons were identified by brief illumination at 470 nm to visualize the GFP signal. Patch borosilicate pipettes (World Precision Instruments), which ranged from 1.5-3 ΩM were filled with normal HEPES-buffered solution containing 150 mM NaCl, 10 mM HEPES, 10 mM glucose, 2.5 mM CaCl2, 1.3 mM MgCl2, and 3.5 mM KCl. Pipettes were placed in contact with the GnRH neurons using an MP-285 micromanipulator (Sutter Instruments). Seal resistances ranged from 8 MΩ and either remained stable or increased during recording up to as high as 50 MΩ. Current traces were obtained using an EPC-8 amplifier (HEKA) with the PulseControl XOP (Instrutech) running in Igor Pro (Wavemetrics) on the G4 Macintosh computer (Apple Computer) to acquire data. A voltage-clamp mode with a pipette holding potential of 0 mV, filtering at 10 kHz, digitized with an ITC-18 acquisition interface (Instrutech) was used for the recordings.
Different doses (1 nM, 10 nM, 100 nM) of peptide 234 were used to examine its antagonistic action on kisspeptin-10 activation of gpr-54. Positive control cells were recorded for a 10-min stable baseline, and then treated with kisspeptin-10 for 5 min, followed by a 15-min washout. Experimental cells were recorded for a 5-min stable baseline in NS, followed by 10 min in peptide 234 (1, 10 or 100 nM), then 5 min in kisspeptin-10 plus the same dose of antagonist, followed by a wash in NS. […]

For experiment [2], the target named is T1, GnRH receptors (Homo sapiens, UniProt P30968).
T1 sequence (P30968 1-328): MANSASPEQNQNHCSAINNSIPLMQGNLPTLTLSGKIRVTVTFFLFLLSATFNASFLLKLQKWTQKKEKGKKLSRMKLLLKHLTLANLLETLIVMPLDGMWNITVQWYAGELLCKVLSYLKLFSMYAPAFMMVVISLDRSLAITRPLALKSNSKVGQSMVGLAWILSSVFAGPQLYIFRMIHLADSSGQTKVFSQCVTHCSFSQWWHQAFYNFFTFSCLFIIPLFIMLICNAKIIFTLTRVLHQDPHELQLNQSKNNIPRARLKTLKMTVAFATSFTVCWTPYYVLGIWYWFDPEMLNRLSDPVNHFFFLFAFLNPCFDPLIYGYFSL
Put plainly: Binding to GnRH receptors (data not shown).

In experiment [3] the test system is serum LH. Put plainly: Serum LH in orchidectomized (castrated) male rats, icv injections. The experiment is classed as in vivo, rat. The conditions noted are these: 1 nmol at 0, 60 and 120 min; significant at 240 min. How it is done: In addition, repeated icy injection of the peptide 234 was also conducted in orchidectomized (ORX) rats. The animals were subjected to bilateral ORX via the scrotal route, and after 1-wk after surgery were subjected to cannula implantation as described above. The test involved three intracerebral injections of the antagonist (1 nmol; at 0-, 60- and 120-min of the procedure) and blood sampling by jugular venipuncture in basal conditions (0-min) and 15-min after each icy injection. Additional blood samples were obtained at 180- and 240-min after central administration of peptide 234. For each time-point, 10-12 samples were taken per group.
Serum LH levels were measured in a volume of 50 μl using a double-antibody method and radioimmunoassay kits supplied by the NIH (Dr. AF Parlow, NIDDK). […] For each hormone, all samples were measured in the same assay. […]
Hormonal determinations were conducted in duplicate, with a minimal total number of 10 samples per group. When appropriate, in addition to individual time-point measurements, integrated LH secretory responses were calculated as the area under the curve (AUC), following the trapezoidal rule. […] Results were analyzed for statistically significant differences using Student t-test or ANOVA followed by Student-Newman-Keuls multiple range test (SigmaStat 2.0). […]

The target in experiment [4] is LH receptors (Homo sapiens, UniProt P22888). Put plainly: Binding to LH receptors (data not shown).
LH receptors, sequence (P22888 27-699): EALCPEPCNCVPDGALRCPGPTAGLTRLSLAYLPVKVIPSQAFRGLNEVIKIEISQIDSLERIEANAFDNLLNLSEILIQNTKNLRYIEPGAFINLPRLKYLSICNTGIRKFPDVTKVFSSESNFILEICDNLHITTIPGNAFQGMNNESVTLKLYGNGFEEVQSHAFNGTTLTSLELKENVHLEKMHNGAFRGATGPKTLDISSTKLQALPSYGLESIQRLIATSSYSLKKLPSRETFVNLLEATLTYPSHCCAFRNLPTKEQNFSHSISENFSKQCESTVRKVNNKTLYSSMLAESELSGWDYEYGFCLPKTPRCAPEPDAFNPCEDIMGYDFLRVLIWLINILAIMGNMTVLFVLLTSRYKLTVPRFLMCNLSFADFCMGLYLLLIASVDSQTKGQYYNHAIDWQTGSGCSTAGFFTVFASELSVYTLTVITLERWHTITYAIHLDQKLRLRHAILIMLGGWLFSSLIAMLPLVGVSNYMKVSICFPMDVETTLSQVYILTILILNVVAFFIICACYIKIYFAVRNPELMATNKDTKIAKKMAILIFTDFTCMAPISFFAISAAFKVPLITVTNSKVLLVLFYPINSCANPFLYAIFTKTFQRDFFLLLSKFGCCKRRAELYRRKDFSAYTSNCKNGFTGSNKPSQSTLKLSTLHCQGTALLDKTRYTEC

Entries after “also recorded” stand apart in the source; their conditions may differ. Non-standard residues stand in square brackets, D forms with d. Residues, ends and D or L forms follow the SMILES beside them.

Data on two compounds can be found in US8916681B2, “Compound, use and method” (Medical Research Council, priority 2007, dated 2014).

Regarding `CC(C)C[C@H](NC(=O)CNC(=O)[C@H](Cc1ccccc1)NC(=O)[C@H](CO)NC(=O)[C@H](CC(N)=O)NC(=O)[C@H](Cc1c[nH]c2ccccc12)NC(=O)[C@H](CC(N)=O)NC(=O)[C@@H](N)Cc1ccc(O)cc1)C(=O)N[C@@H](CCCNC(=N)N)C(=O)N[C@@H](Cc1ccccc1)C(N)=O` [Kiss, reference compound], the “GnRH neuron firing activity” value in experiment [1] (1 nM agonist, listed as kisspeptin-10) was “significantly increased; also recorded: markedly increased”.
`CC(=O)N[C@H](C)C(=O)N[C@@H](CC(N)=O)C(=O)N[C@@H](Cc1c[nH]c2ccccc12)C(=O)N[C@@H](CC(N)=O)C(=O)NCC(=O)N[C@@H](Cc1ccccc1)C(=O)NCC(=O)N[C@H](Cc1c[nH]c2ccccc12)C(=O)N[C@@H](CCCNC(=N)N)C(=O)N[C@@H](Cc1ccccc1)C(N)=O` [Peptide 234] (Ac-[dA]NWNGFG[dW]RF-NH2): the “binding to GnRH receptors” value in experiment [2] is on record as “did not bind”. Further, the “GnRH neuron firing activity, peptide alone” value stood at 0.27±0.08 Hz in experiment [1] (1 nM, post); 0.18±0.12 Hz in experiment [1] (1 nM, pre); 0.29±0.17 Hz in experiment [1] (10 nM, post); 0.34±0.15 Hz in experiment [1] (10 nM, pre); 0.62±0.14 Hz in experiment [1] (100 nM, post); 0.45±0.12 Hz in experiment [1] (100 nM, pre). In experiment [1] (1, 10, 100 nM), the “effect of peptide alone on GnRH neuron firing activity” value is “no effect”. Moreover, the “response of GnRH neuron firing to 1 nM kisspeptin-10 after pretreatment with peptide” value was “block” in experiment [1] and “significantly reduced; also recorded: blocked” in experiment [1] (listed as peptide 234). The “serum LH levels in castrated males” value in experiment [3] was “inhibited; also recorded: tended to reduce; also recorded: blocked the increase in LH”. Further, in experiment [4], the “binding to LH receptors” value is listed as “did not bind”.
